Test results as given in US12649727B2, “EFGR inhibitor, preparation method therefor and application thereof” (Abbisko Therapeutics Co., Ltd, priority 2020, dated 2026).

Experiments:
Type in all cases: cell-based
[1] = system: A431 (EGFR-WT); assay: Proliferation experiment, A431 cell line (CellTiter-Glo); details: Homo sapiens, A-431; A431 cells, cultured for 72 hrs with compound, CTG analysis
[2] = biological target: Ba/F3 EGFR-D770-N771ins_SVD (Homo sapiens, UniProt P00533, DUP768-770, cells depend on it); assay: Proliferation experiment of Ba/F3 cell line, EGFR-D770-N771ins_SVD (CellTiter-Glo); details: cultured for 72 hrs with compound, CTG analysis, read-out: Ba/F3 EGFR-D770-N771ins_SVD IC50
Ba/F3 EGFR-D770-N771ins_SVD, sequence (P00533 with tags, fused parts or gaps DUP768-770): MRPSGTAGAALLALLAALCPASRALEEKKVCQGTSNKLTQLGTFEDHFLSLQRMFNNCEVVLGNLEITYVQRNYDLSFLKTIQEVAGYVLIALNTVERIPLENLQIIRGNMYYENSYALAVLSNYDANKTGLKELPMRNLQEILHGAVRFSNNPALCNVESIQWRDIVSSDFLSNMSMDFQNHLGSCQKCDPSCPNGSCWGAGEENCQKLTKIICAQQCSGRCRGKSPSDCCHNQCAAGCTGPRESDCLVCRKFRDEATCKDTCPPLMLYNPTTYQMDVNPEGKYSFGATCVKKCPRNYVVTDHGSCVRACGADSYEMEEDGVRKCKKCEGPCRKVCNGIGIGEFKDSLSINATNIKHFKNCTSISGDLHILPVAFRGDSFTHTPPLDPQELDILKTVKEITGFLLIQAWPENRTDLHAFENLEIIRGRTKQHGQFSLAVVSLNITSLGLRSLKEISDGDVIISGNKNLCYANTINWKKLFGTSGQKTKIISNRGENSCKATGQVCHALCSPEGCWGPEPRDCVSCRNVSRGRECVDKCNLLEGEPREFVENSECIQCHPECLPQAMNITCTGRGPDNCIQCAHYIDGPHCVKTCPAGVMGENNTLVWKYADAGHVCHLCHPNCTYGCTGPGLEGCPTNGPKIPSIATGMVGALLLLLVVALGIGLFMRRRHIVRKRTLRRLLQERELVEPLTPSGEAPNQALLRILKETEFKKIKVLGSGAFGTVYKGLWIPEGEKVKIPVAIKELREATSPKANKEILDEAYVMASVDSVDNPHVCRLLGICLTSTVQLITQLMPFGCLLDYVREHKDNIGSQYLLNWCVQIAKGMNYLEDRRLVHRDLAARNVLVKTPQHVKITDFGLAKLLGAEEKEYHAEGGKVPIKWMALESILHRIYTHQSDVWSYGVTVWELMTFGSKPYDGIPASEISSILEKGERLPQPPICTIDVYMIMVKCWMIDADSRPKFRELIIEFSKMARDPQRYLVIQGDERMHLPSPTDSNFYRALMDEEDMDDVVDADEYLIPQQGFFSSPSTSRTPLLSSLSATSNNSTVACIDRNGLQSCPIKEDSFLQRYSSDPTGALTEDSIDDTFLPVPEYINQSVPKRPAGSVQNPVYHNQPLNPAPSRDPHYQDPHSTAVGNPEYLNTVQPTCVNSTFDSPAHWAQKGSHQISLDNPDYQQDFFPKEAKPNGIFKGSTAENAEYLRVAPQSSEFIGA
How it was run: (§1)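 […] Ba/F3 cells expressing EGFR insertion mutants treated 72 h at 37 °C with 9 concentrations, 3.16-fold dilutions, top 10 μM, 0.1% DMSO, in triplicate. Viability by CellTiter-Glo luminescence with T0 reference plate; IC50 (nM) from non-linear dose-response fit.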

[3] = biological target: Ba/F3 EGFR-V769_D770insASV (Homo sapiens, UniProt P00533, DUP767-769, cells depend on it); assay: Proliferation experiment of Ba/F3 cell line, EGFR-V769_D770insASV (CellTiter-Glo); details: cultured for 72 hrs with compound, CTG analysis, read-out: Ba/F3 EGFR-V769_D770insASV IC50
Ba/F3 EGFR-V769_D770insASV, sequence (P00533 with tags, fused parts or gaps DUP767-769): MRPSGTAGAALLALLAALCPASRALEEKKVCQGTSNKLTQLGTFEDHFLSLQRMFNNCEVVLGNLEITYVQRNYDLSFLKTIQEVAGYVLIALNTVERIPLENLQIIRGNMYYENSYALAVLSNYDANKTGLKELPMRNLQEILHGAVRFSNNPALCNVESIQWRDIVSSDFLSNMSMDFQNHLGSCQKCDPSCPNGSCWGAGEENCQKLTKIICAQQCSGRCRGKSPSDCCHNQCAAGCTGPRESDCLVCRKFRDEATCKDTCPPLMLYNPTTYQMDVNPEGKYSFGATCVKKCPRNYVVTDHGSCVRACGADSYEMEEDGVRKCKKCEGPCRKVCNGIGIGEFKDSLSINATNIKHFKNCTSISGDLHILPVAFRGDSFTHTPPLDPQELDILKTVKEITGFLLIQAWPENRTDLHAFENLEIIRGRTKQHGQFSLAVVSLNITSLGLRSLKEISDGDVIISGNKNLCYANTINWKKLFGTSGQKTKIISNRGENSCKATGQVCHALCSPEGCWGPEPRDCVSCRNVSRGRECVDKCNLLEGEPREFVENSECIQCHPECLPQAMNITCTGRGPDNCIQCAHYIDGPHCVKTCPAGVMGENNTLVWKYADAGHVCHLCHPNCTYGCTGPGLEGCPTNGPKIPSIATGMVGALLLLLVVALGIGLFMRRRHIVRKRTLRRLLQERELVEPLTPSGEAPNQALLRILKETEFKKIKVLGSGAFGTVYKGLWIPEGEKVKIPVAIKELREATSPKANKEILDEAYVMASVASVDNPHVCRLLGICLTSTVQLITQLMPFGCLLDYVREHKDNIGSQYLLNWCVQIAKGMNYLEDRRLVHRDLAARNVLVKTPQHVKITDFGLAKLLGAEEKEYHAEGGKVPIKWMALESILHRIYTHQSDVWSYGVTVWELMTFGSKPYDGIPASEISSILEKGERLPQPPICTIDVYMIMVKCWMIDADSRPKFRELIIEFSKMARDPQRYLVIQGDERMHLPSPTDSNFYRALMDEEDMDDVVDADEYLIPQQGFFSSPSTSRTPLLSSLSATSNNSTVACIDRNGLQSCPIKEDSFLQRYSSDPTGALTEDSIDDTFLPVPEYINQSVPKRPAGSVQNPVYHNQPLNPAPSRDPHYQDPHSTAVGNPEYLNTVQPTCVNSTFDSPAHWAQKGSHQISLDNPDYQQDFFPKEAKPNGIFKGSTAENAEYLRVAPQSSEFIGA
How it was run: as §1

Row | Compound | IC50 [1] | GI50 [2] | GI50 [3]
1 | C=CC(=O)Nc1cc2c(Nc3ccc(F)c(-c4ccccc4)c3)ncnc2cc1OCCCN1CCOCC1 [Example 47, N-(4-((6-fluoro-[1,1′-biphenyl]-3-yl)amino)-7-(3-morpholinopropoxy)quinazolin-6-yl)acrylamide] | 0.19 µM | 0.0295 µM | 0.0414 µM
2 | C=CC(=O)Nc1cc2c(Nc3ccc(F)c(-c4ccccc4)c3)ncnc2cc1OCCCN1CCN(C)CC1 [Example 48, N-(4-((6-fluoro-[1,1′-biphenyl]-3-yl)amino)-7-(3-(4-methylpiperazin-1-yl)propoxy)quinazolin-6-yl)acrylamide] | 0.026 µM | 0.0145 µM | 0.0414 µM
3 | C=CC(=O)Nc1cc2c(Nc3ccc(F)c(-c4ccccn4)c3)ncnc2cc1OCCCN1CCOCC1 [Example 49, N-(4-((4-fluoro-3-(pyridin-2-yl)phenyl)amino)-7-(3-morpholinopropoxy)quinazolin-6-yl)acrylamide] | 0.377 µM | 0.0286 µM | 0.0591 µM
4 | C=CC(=O)Nc1cc2c(Nc3ccc(F)c(-c4ccccn4)c3)ncnc2cc1OCCCN1CCN(C)CC1 [Example 50, N-(4-((4-fluoro-3-(pyridin-2-yl)phenyl)amino)-7-(3-(4-methylpiperazin-1-yl)propoxy)quinazolin-6-yl)acrylamide] | 0.048 µM | 0.0233 µM | 0.0379 µM
5 | C=CC(=O)Nc1cc2c(Nc3cccc(-n4cccn4)c3)ncnc2cc1OCCCN1CCN(C)CC1 [Example 53, N-(4-((3-(1H-pyrazol-1-yl)phenyl)amino)-7-(3-(4-methylpiperazin-1-yl)propoxy)quinazolin-6-yl)acrylamide] | 0.341 µM | 0.0114 µM | 0.0223 µM
6 | C=CC(=O)Nc1cc2c(Nc3cccc(-n4nccn4)c3)ncnc2cc1OCCCN1CCN(C)CC1 [Example 56, N-(4-((3-(2H-1,2,3-triazol-2-yl)phenyl)amino)-7-(3-(4-methylpiperazin-1-yl)propoxy)quinazolin-6-yl)acrylamide] | 0.357 µM | 0.0114 µM | 0.0226 µM
7 | C=CC(=O)Nc1cc2c(Nc3cncc(-c4ccccc4F)c3)ncnc2cc1OCCN1CCOCC1 [Example 57, N-(4-((5-(2-fluorophenyl)pyridin-3-yl)amino)-7-(2-morpholinoethoxy)quinazolin-6-yl)acrylamide] | 1.07 µM | 0.0108 µM | 0.0287 µM
8 | C=CC(=O)Nc1cc2c(Nc3cncc(-c4ccccc4F)c3)ncnc2cc1OCCCN1CCOCC1 [Example 58, N-(4-((5-(2-fluorophenyl)pyridin-3-yl)amino)-7-(3-morpholinopropoxy)quinazolin-6-yl)acrylamide] | 0.84 µM | 0.0051 µM | 0.0136 µM
9 | C=CC(=O)Nc1cc2c(Nc3cncc(-c4ccccc4F)c3)ncnc2cc1OCCCN1CCN(C)CC1 [Example 59, N-(4-((5-(2-fluorophenyl)pyridin-3-yl)amino)-7-(3-(4-methylpiperazin-1-yl)propoxy)quinazolin-6-yl)acrylamide] | 0.226 µM | 0.0042 µM | 0.0112 µM
10 | C=CC(=O)Nc1cc2c(Nc3cncc(-c4c(F)cccc4F)c3)ncnc2cc1OCCCN1CCN(C)CC1 [Example 62, N-(4-((5-(2,6-difluorophenyl)pyridin-3-yl)amino)-7-(3-(4-methylpiperazin-1-yl)propoxy)quinazolin-6-yl)acrylamide] | 0.348 µM | 0.011 µM | 0.0236 µM
11 | C=CC(=O)Nc1cc2c(Nc3cncc(-c4ccccc4F)c3)ncnc2cc1O[C@@H]1CCN(C)C1 [Example 63, (R)-N-(4-((5-(2-fluorophenyl)pyridin-3-yl)amino)-7-((1-methylpyrrolidin-3-yl)oxy)quinazolin-6-yl)acrylamide] | 0.972 µM | 0.0141 µM | 0.0381 µM
12 | C=CC(=O)Nc1cc2c(Nc3cncc(-c4c(F)cccc4F)c3)ncnc2cc1O[C@@H]1CCN(C)C1 [Example 64, (R)-N-(4-((5-(2,6-difluorophenyl)pyridin-3-yl)amino)-7-((1-methylpyrrolidin-3-yl)oxy)quinazolin-6-yl)acrylamide] | 1.01 µM | 0.0345 µM | 0.0636 µM
13 | C=CC(=O)Nc1cc2c(Nc3ccnc(-c4ccccc4F)c3)ncnc2cc1O[C@@H]1CCN(C)C1 [Example 65, (R)—N-(4-((2-(2-fluorophenyl)pyridin-4-yl)amino)-7-((1-methylpyrrolidin-3-yl)oxy)quinazolin-6-yl)acrylamide] | 0.289 µM | 0.0041 µM | 0.0079 µM
14 | C=C(F)C(=O)Nc1cc2c(Nc3ccnc(-c4ccccc4F)c3)ncnc2cc1O[C@@H]1CCN(C)C1 [Example 66, (R)-2-fluoro-N-(4-((2-(2-fluorophenyl)pyridin-4-yl)amino)-7-((1-methylpyrrolidin-3-yl)oxy)quinazolin-6-yl)acrylamide] | 0.0102 µM | 0.0059 µM | 0.0065 µM
15 | CN(C)C/C=C/C(=O)Nc1cc2c(Nc3ccnc(-c4ccccc4F)c3)ncnc2cc1O[C@@H]1CCN(C)C1 [Example 67, (R,E)-4-(dimethylamino)-N-(4-((2-(2-fluorophenyl)pyridin-4-yl)amino)-7-((1-methylpyrrolidin-3-yl)oxy)quinazolin-6-yl)but-2-enamide] | 0.0211 µM | 0.0095 µM | 0.0115 µM
16 | C=CC(=O)Nc1cc2c(Nc3ccnc(-c4ccccc4F)c3)ncnc2cc1OCCN1CCOCC1 [Example 68, N-(4-((2-(2-fluorophenyl)pyridin-4-yl)amino)-7-(2-morpholinoethoxy)quinazolin-6-yl)acrylamide] | 0.0193 µM | 0.0013 µM | 0.0025 µM
17 | C=CC(=O)Nc1cc2c(Nc3ccnc(-c4ccccc4F)c3)ncnc2cc1OCCCN1CCOCC1 [Example 69, N-(4-((2-(2-fluorophenyl)pyridin-4-yl)amino)-7-(3-morpholinopropoxy)quinazolin-6-yl)acrylamide] | 0.0381 µM | 0.0034 µM | 0.005 µM
18 | C=CC(=O)Nc1cc2c(Nc3ccnc(-c4ccccc4F)c3)ncnc2cc1OCCCN1CCN(C)CC1 [Example 70, N-(4-((2-(2-fluorophenyl)pyridin-4-yl)amino)-7-(3-(4-methylpiperazin-1-yl)propoxy)quinazolin-6-yl)acrylamide] | 0.081 µM | 0.0031 µM | 0.005 µM
19 | C=CC(=O)Nc1cc2c(Nc3ccnc(-c4ccccc4F)c3)ncnc2cc1OCCCN1CCN(CC)CC1 [Example 71, N-(7-(3-(4-ethylpiperazin-1-yl)propoxy)-4-((2-(2-fluorophenyl)pyridin-4-yl)amino)quinazolin-6-yl)acrylamide] | 0.0093 µM | 0.0019 µM | 0.0031 µM
20 | C=CC(=O)Nc1cc2c(Nc3ccnc(-c4c(F)cccc4F)c3)ncnc2cc1OCCCN1CCN(C)CC1 [Example 74, N-(4-((2-(2,6-difluorophenyl)pyridin-4-yl)amino)-7-(3-(4-methylpiperazin-1-yl)propoxy)quinazolin-6-yl)acrylamide] | 0.136 µM | 0.0035 µM | 0.0044 µM
21 | C=CC(=O)Nc1cc2c(Nc3ccnc(-c4c(F)cccc4F)c3)ncnc2cc1O[C@@H]1CCN(C)C1 [Example 76, (R)-N-(4-((2-(2,6-difluorophenyl)pyridin-4-yl)amino)-7-((1-methylpyrrolidin-3-yl)oxy)quinazolin-6-yl)acrylamide] | 0.0732 µM | 0.0029 µM | 0.0064 µM
22 | C=CC(=O)Nc1cc2c(Nc3ccnc(-c4ccc(F)cc4F)c3)ncnc2cc1OCCN1CCOCC1 [Example 77, N-(4-((2-(2,4-difluorophenyl)pyridin-4-yl)amino)-7-(2-morpholinoethoxy)quinazolin-6-yl)acrylamide] | 0.317 µM | 0.0016 µM | 0.0044 µM
23 | C=CC(=O)Nc1cc2c(Nc3ccnc(-c4ccc(F)cc4F)c3)ncnc2cc1OCCCN1CCOCC1 [Example 78, N-(4-((2-(2,4-difluorophenyl)pyridin-4-yl)amino)-7-(3-morpholinopropoxy)quinazolin-6-yl)acrylamide] | 0.041 µM | 0.0032 µM | 0.0038 µM
24 | C=CC(=O)Nc1cc2c(Nc3ccnc(-c4ccc(F)cc4F)c3)ncnc2cc1OCCCN1CCN(C)CC1 [Example 79, N-(4-((2-(2,4-difluorophenyl)pyridin-4-yl)amino)-7-(3-(4-methylpiperazin-1-yl)propoxy)quinazolin-6-yl)acrylamide] | 0.0321 µM | 0.0042 µM | 0.0068 µM
25 | C=CC(=O)Nc1cc2c(Nc3ccnc(-c4ccc(F)cc4F)c3)ncnc2cc1O[C@@H]1CCN(C)C1 [Example 81, (R)-N-(4-((2-(2,4-difluorophenyl)pyridin-4-yl)amino)-7-((1-methylpyrrolidin-3-yl)oxy)quinazolin-6-yl)acrylamide] | 0.122 µM | 0.0031 µM | 0.0052 µM
26 | C=CC(=O)Nc1cc2c(Nc3ccnc(-c4ccccc4F)c3)ncnc2cc1OC [Example 82, N-(4-((2-(2-fluorophenyl)pyridin-4-yl)amino)-7-methoxyquinazolin-6-yl)acrylamide] | 0.624 µM | 0.0017 µM | 0.0026 µM
27 | C=CC(=O)Nc1cc2c(Nc3ccnc(-c4ccccc4F)c3)ncnc2cc1OCC [Example 83, N-(4-((2-(2-fluorophenyl)pyridin-4-yl)amino)-7-ethoxyquinazolin-6-yl)acrylamide] | 0.82 µM | 0.0033 µM | 0.0075 µM
28 | C=C(F)C(=O)Nc1cc2c(Nc3ccnc(-c4ccccc4F)c3)ncnc2cc1OC [Example 86, 2-fluoro-N-(4-((2-(2-fluorophenyl)pyridin-4-yl)amino)-7-methoxyquinazolin-6-yl)acrylamide] | 0.316 µM | 0.0033 µM | 0.0051 µM
